Test results taken from PubChem BioAssay AID2060912 (Molecular Pharmacology Branch, DTP, NCI, 2025).

Tested on: HUVEC/MSC spheroids viability
Test: Human HUVEC/MSC cell line growth inhibition [KRAS2];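 as to viability, T/C: percent of DMSO vehicle control luminescence so 100% = untreated viability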
Conditions: for IC50: curve of first compound; for viability, T/C: stronger effect = lower value
In short: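 Endothelial cells (HUVEC) plus mesenchymal stem cells, cultured at 37 °C/5% CO2 and assembled into spheroids without cancer cells, served as a stromal control. Drug pairs and single agents spanned half-log ranges anchored to clinical Cmax.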

[1] = second compound 0.0316 µM, first compound 0.00316 µM
[2] = second compound 0.0316 µM, first compound 0.01 µM
[3] = second compound 0.0316 µM, first compound 0.0316 µM
[4] = second compound 0.0316 µM, first compound 0.1 µM
[5] = second compound 0.1 µM, first compound 0.00316 µM
[6] = second compound 0.1 µM, first compound 0.01 µM
[7] = second compound 0.1 µM, first compound 0.0316 µM
[8] = second compound 0.1 µM, first compound 0.1 µM
[9] = second compound 0.316 µM, first compound 0.00316 µM
[10] = second compound 0.316 µM, first compound 0.01 µM
[11] = second compound 0.316 µM, first compound 0.0316 µM
[12] = second compound 0.316 µM, first compound 0.1 µM
[13] = second compound 1 µM, first compound 0.00316 µM
[14] = second compound 1 µM, first compound 0.01 µM
[15] = second compound 1 µM, first compound 0.0316 µM
[16] = second compound 1 µM, first compound 0.1 µM
[17] = second compound 3.16 µM, first compound 0.00316 µM
[18] = second compound 3.16 µM, first compound 0.01 µM
[19] = second compound 3.16 µM, first compound 0.0316 µM
[20] = second compound 3.16 µM, first compound 0.1 µM
[21] = second compound 10 µM, first compound 0.00316 µM
[22] = second compound 10 µM, first compound 0.01 µM
[23] = second compound 10 µM, first compound 0.0316 µM
[24] = second compound 10 µM, first compound 0.1 µM

Q: For `CCN1CCN(Cc2ccc(Nc3ncc(F)c(-c4cc(F)c5nc(C)n(C(C)C)c5c4)n3)nc2)CC1` + CNCc1ccccc1-c1csc(C(C)Nc2nc(C)nc3cc(OC)c(OC)cc23)c1, which IC50 (second compound 0.0316 µM) is on record?
A: > 1000 nM

Q: And the IC50 (second compound 0.1 µM)?
A: > 1000 nM

Q: And the IC50 (second compound 0.316 µM)?
A: > 1000 nM

Q: What about the IC50 (second compound 1 µM) of the same compound?
A: > 1000 nM

Q: What about the IC50 (second compound 3.16 µM) of the same compound?
A: 563 nM

Q: And the IC50 (second compound 10 µM)?
A: < 3.16 nM

Q: What about the viability, T/C [1] of the same compound?
A: 100%

Q: And the viability, T/C [2]?
A: 93.7%

Q: And the viability, T/C [3]?
A: 68.7%

Q: What about the viability, T/C [4] of the same compound?
A: 96.5%

Q: And the viability, T/C (second compound 0.0316 µM, first compound 0.316 µM)?
A: 107%

Q: What about the viability, T/C (second compound 0.0316 µM, first compound 1 µM) of the same compound?
A: 140%

Q: What about the viability, T/C [5] of the same compound?
A: 91%

Q: What about the viability, T/C [6] of the same compound?
A: 96.2%

Q: What about the viability, T/C [7] of the same compound?
A: 83%

Q: What about the viability, T/C [8] of the same compound?
A: 85.6%

Q: What about the viability, T/C (second compound 0.1 µM, first compound 0.316 µM) of the same compound?
A: 107%

Q: And the viability, T/C (second compound 0.1 µM, first compound 1 µM)?
A: 155%

Q: And the viability, T/C [9]?
A: 78.2%

Q: And the viability, T/C [10]?
A: 97.7%

Q: And the viability, T/C [11]?
A: 79.5%

Q: What about the viability, T/C [12] of the same compound?
A: 92.7%

Q: What about the viability, T/C (second compound 0.316 µM, first compound 0.316 µM) of the same compound?
A: 102%

Q: What about the viability, T/C (second compound 0.316 µM, first compound 1 µM) of the same compound?
A: 113%

Q: What about the viability, T/C [13] of the same compound?
A: 54.9%

Q: And the viability, T/C [14]?
A: 90.8%

Q: What about the viability, T/C [15] of the same compound?
A: 91.8%

Q: What about the viability, T/C [16] of the same compound?
A: 81.4%

Q: What about the viability, T/C (second compound 1 µM, first compound 0.316 µM) of the same compound?
A: 114%

Q: What about the viability, T/C (second compound 1 µM, first compound 1 µM) of the same compound?
A: 119%

Q: What about the viability, T/C [17] of the same compound?
A: 83.8%

Q: And the viability, T/C [18]?
A: 103%

Q: And the viability, T/C [19]?
A: 95.5%

Q: What about the viability, T/C [20] of the same compound?
A: 92.8%

Q: And the viability, T/C (second compound 3.16 µM, first compound 0.316 µM)?
A: 123%

Q: And the viability, T/C (second compound 3.16 µM, first compound 1 µM)?
A: 0.46%

Q: And the viability, T/C [21]?
A: 0.4%

Q: What about the viability, T/C [22] of the same compound?
A: 0.42%

Q: And the viability, T/C [23]?
A: 0.47%

Q: What about the viability, T/C [24] of the same compound?
A: 0.41%

Q: What about the viability, T/C (second compound 10 µM, first compound 0.316 µM) of the same compound?
A: 0.39%

Q: What about the viability, T/C (second compound 10 µM, first compound 1 µM) of the same compound?
A: 0.31%

Q: Which results are given for `Cn1ncnc1[C@H]1c2n[nH]c(=O)c3cc(F)cc(c23)N[C@@H]1c1ccc(F)cc1` + CNCc1ccccc1-c1csc(C(C)Nc2nc(C)nc3cc(OC)c(OC)cc23)c1?
A: IC50 (second compound 0.0316 µM): > 100 nM; IC50 (second compound 0.1 µM): > 100 nM; IC50 (second compound 0.316 µM): > 100 nM; IC50 (second compound 1 µM): > 100 nM; IC50 (second compound 3.16 µM): > 100 nM; IC50 (second compound 10 µM): < 0.316 nM; viability, T/C (second compound 0.0316 µM, first compound 0.000316 µM): 97.8%; viability, T/C (second compound 0.0316 µM, first compound 0.001 µM): 85.9%; viability, T/C [1]: 81.2%; viability, T/C [2]: 73.2%; viability, T/C [3]: 76.8%; viability, T/C [4]: 78.4%; viability, T/C (second compound 0.1 µM, first compound 0.000316 µM): 93.3%; viability, T/C (second compound 0.1 µM, first compound 0.001 µM): 90.2%; viability, T/C [5]: 90.2%; viability, T/C [6]: 70.6%; viability, T/C [7]: 81.8%; viability, T/C [8]: 79.7%; viability, T/C (second compound 0.316 µM, first compound 0.000316 µM): 65.4%; viability, T/C (second compound 0.316 µM, first compound 0.001 µM): 90.5%; viability, T/C [9]: 79.9%; viability, T/C [10]: 76.5%; viability, T/C [11]: 76.2%; viability, T/C [12]: 69.2%; viability, T/C (second compound 1 µM, first compound 0.000316 µM): 67.3%; viability, T/C (second compound 1 µM, first compound 0.001 µM): 76.9%; viability, T/C [13]: 67%; viability, T/C [14]: 75.3%; viability, T/C [15]: 75.9%; viability, T/C [16]: 72%; viability, T/C (second compound 3.16 µM, first compound 0.000316 µM): 89%; viability, T/C (second compound 3.16 µM, first compound 0.001 µM): 86.8%; viability, T/C [17]: 94.7%; viability, T/C [18]: 80.7%; viability, T/C [19]: 77.8%; viability, T/C [20]: 75%; viability, T/C (second compound 10 µM, first compound 0.000316 µM): 0.29%; viability, T/C (second compound 10 µM, first compound 0.001 µM): 0.28%; viability, T/C [21]: 0.32%; viability, T/C [22]: 0.29%; viability, T/C [23]: 0.31%; viability, T/C [24]: 0.28%
